Experimental data taken from patent US9707305B2, “Formulas for diagnosing and treating hormone-dependent cancers and cancers of the organs responsible for steroid hormone synthesis” (Commissariat à l'énergie atomique et aux énergies …, priority 2011, dated 2017).

What was measured:
[1] = Biodistribution of the nano-emulsion of Example 1.1 in male mice (Tables 15 to 21); format: in vivo; conditions: FVB male mouse
Experimental: (§1) In the following examples, the radioactivity was counted with the TRiCarb Counter (Ref: Packard, Liquid Scintillation Analyzers; Models 2200CA).
Fluobeam 700 (Fluoptics) is the apparatus with which the whole of the organs from the biodistribution were analyzed in fluorescence as well as the one with which the biodistribution kinetics of the nano-emulsions were established in vivo. This imaging system allows viewing of the fluorescence in spectral bands from 700 to 850 nm for a 650 nm excitation. The apparatus consists of an electric case containing the laser of class 3B, its power supply and an optical head containing the CCD camera. […]

[2] = Biodistribution of the mixture of three free tracers (not formulated as nano-emulsion), comparative; format: in vivo; conditions: FVB female mouse
Experimental: as §1
Fluobeam 700 (Fluoptics) is the apparatus with which the whole of the organs from the biodistribution were analyzed in fluorescence as well as the one with which the biodistribution kinetics of the nano-emulsions were established in vivo. This imaging system allows viewing of the fluorescence in spectral bands from 700 to 850 nm for a 650 nm excitation. The apparatus consists of an electric case containing the laser of class 3B, its power supply and an optical head containing the CCD camera.
As a comparison, a mixture of three tracers ([3H]CHE, [14C]CO and DiD) (not formulated as a nano-emulsion) was injected in order to observe the distribution of the tracers in the absence of droplets being used as a distribution carrier.

[3] = 2 h after injection of free tracers (not nano-emulsion)
[4] = 6 h after injection of free tracers (not nano-emulsion)
[5] = 16 h after injection of free tracers (not nano-emulsion)
[6] = 24 h after injection of free tracers (not nano-emulsion)

## CCCCCCCCCCCCCCCCCCN1/C(=C/C=C/C=C/C2=[N+](CCCCCCCCCCCCCCCCCC)c3ccccc3C2(C)C)C(C)(C)c2ccccc21.[O-][Cl+3]([O-])([O-])[O-] [DiD, l,r-dioctadécyl-3,3,3′,3′-tetramethylindodicarbocyanine (DiD) perchlorate]
[1]; 2 h
  fluorescence intensity in Adrenal gland: 779.1
  fluorescence intensity in Brain: 186.5
  fluorescence intensity in Fat: 184.0
  fluorescence intensity in Heart: 427.6
  fluorescence intensity in Intestine: 392.1
  fluorescence intensity in Kidney: 601.1
  fluorescence intensity in Liver: 831.9
  fluorescence intensity in Lung: 559.9
  fluorescence intensity in Muscle: 176.7
  fluorescence intensity in Pancreas: 255.1
  fluorescence intensity in Salivary gland: 310.0
  fluorescence intensity in Spleen: 455.7
  fluorescence intensity in Testicle: 639.9
[1]; 4 h
  fluorescence intensity in Adrenal gland: 536.1
  fluorescence intensity in Brain: 150.6
  fluorescence intensity in Fat: 128.3
  fluorescence intensity in Heart: 306.9
  fluorescence intensity in Intestine: 336.2
  fluorescence intensity in Kidney: 505.0
  fluorescence intensity in Liver: 813.0
  fluorescence intensity in Lung: 446.4
  fluorescence intensity in Muscle: 152.3
  fluorescence intensity in Pancreas: 295.0
  fluorescence intensity in Salivary gland: 297.8
  fluorescence intensity in Seminal gland: 179.5
  fluorescence intensity in Spleen: 407.4
  fluorescence intensity in Testicle: 470.9
[1]; 6 h
  fluorescence intensity in Adrenal gland: 721.9
  fluorescence intensity in Brain: 235.9
  fluorescence intensity in Fat: 221.1
  fluorescence intensity in Heart: 253.8
  fluorescence intensity in Intestine: 378.0
  fluorescence intensity in Kidney: 427.7
  fluorescence intensity in Liver: 847.4
  fluorescence intensity in Lung: 426.0
  fluorescence intensity in Muscle: 169.3
  fluorescence intensity in Pancreas: 347.0
  fluorescence intensity in Salivary gland: 488.5
  fluorescence intensity in Seminal gland: 261.0
  fluorescence intensity in Spleen: 488.6
  fluorescence intensity in Testicle: 723.1
[1]; 16 h
  fluorescence intensity in Adrenal gland: 1086.2
  fluorescence intensity in Brain: 134.7
  fluorescence intensity in Fat: 117.0
  fluorescence intensity in Heart: 281.5
  fluorescence intensity in Intestine: 640.4
  fluorescence intensity in Kidney: 343.0
  fluorescence intensity in Liver: 1157.2
  fluorescence intensity in Lung: 423.5
  fluorescence intensity in Muscle: 281.9
  fluorescence intensity in Pancreas: 332.6
  fluorescence intensity in Salivary gland: 838.8
  fluorescence intensity in Seminal gland: 163.0
  fluorescence intensity in Spleen: 373.3
  fluorescence intensity in Testicle: 525.4
[1]; 24 h
  fluorescence intensity in Adrenal gland: 1105.9
  fluorescence intensity in Brain: 109.3
  fluorescence intensity in Fat: 142.1
  fluorescence intensity in Heart: 239.7
  fluorescence intensity in Intestine: 621.0
  fluorescence intensity in Kidney: 323.1
  fluorescence intensity in Liver: 1152.7
  fluorescence intensity in Lung: 406.0
  fluorescence intensity in Muscle: 144.9
  fluorescence intensity in Pancreas: 268.9
  fluorescence intensity in Salivary gland: 501.1
  fluorescence intensity in Seminal gland: 170.6
  fluorescence intensity in Spleen: 638.0
[1]; 48 h
  fluorescence intensity in Adrenal gland: 783.7
  fluorescence intensity in Brain: 160.4
  fluorescence intensity in Fat: 185.1
  fluorescence intensity in Heart: 178.1
  fluorescence intensity in Intestine: 381.6
  fluorescence intensity in Kidney: 168.3
  fluorescence intensity in Liver: 988.2
  fluorescence intensity in Lung: 346.5
  fluorescence intensity in Muscle: 131.7
  fluorescence intensity in Pancreas: 266.2
  fluorescence intensity in Salivary gland: 489.7
  fluorescence intensity in Seminal gland: 166.7
  fluorescence intensity in Spleen: 656.7
  fluorescence intensity in Testicle: 648.6
[1]; 72 h
  fluorescence intensity in Adrenal gland: 717.3
  fluorescence intensity in Brain: 14.8
  fluorescence intensity in Fat: 78.0
  fluorescence intensity in Heart: 142.3
  fluorescence intensity in Intestine: 267.8
  fluorescence intensity in Kidney: 160.3
  fluorescence intensity in Liver: 648.0
  fluorescence intensity in Lung: 286.6
  fluorescence intensity in Muscle: 109.2
  fluorescence intensity in Pancreas: 160.6
  fluorescence intensity in Salivary gland: 430.2
  fluorescence intensity in Seminal gland: 74.4
  fluorescence intensity in Spleen: 278.0
  fluorescence intensity in Testicle: 481.2
[1]; Seminal glands, 2 h
  fluorescence intensity in Seminal glands: 175.3
[2]; [3]
  fluorescence intensity, Adrenal glands (MEAN): 730.45 photons per pixel, reduced to
  fluorescence intensity, Brain (MEAN): 439.56 photons per pixel, reduced to
  fluorescence intensity, Fat (MEAN): 280.30 photons per pixel, reduced to
  fluorescence intensity, Heart (MEAN): 487.37 photons per pixel, reduced to
  fluorescence intensity, Intestine (MEAN): 451.58 photons per pixel, reduced to
  fluorescence intensity, Kidney (MEAN): 862.35 photons per pixel, reduced to
  fluorescence intensity, Liver (MEAN): 2477.20 photons per pixel, reduced to
  fluorescence intensity, Lung (MEAN): 848.08 photons per pixel, reduced to
  fluorescence intensity, Muscle (MEAN): 211.84 photons per pixel, reduced to
  fluorescence intensity, Ovary (MEAN): 954.70 photons per pixel, reduced to
  fluorescence intensity, Pancreas (MEAN): 466.58 photons per pixel, reduced to
  fluorescence intensity, Salivary gland (MEAN): 399.58 photons per pixel, reduced to
  fluorescence intensity, Spleen (MEAN): 1162.07 photons per pixel, reduced to
  fluorescence intensity, Uterus (MEAN): 694.28 photons per pixel, reduced to
[2]; [4]
  fluorescence intensity, Adrenal glands (MEAN): 208.14 photons per pixel, reduced to
  fluorescence intensity, Brain (MEAN): 116.17 photons per pixel, reduced to
  fluorescence intensity, Fat (MEAN): 234.61 photons per pixel, reduced to
  fluorescence intensity, Heart (MEAN): 346.63 photons per pixel, reduced to
  fluorescence intensity, Intestine (MEAN): 363.09 photons per pixel, reduced to
  fluorescence intensity, Kidney (MEAN): 573.78 photons per pixel, reduced to
  fluorescence intensity, Liver (MEAN): 2293.21 photons per pixel, reduced to
  fluorescence intensity, Lung (MEAN): 433.52 photons per pixel, reduced to
  fluorescence intensity, Muscle (MEAN): 108.34 photons per pixel, reduced to
  fluorescence intensity, Ovary (MEAN): 250.27 photons per pixel, reduced to
  fluorescence intensity, Pancreas (MEAN): 191.73 photons per pixel, reduced to
  fluorescence intensity, Salivary gland (MEAN): 232.98 photons per pixel, reduced to
  fluorescence intensity, Spleen (MEAN): 3224.12 photons per pixel, reduced to
  fluorescence intensity, Uterus (MEAN): 506.03 photons per pixel, reduced to
[2]; [5]
  fluorescence intensity, Adrenal gland (MEAN): 1683.36 photons per pixel, reduced to
  fluorescence intensity, Brain (MEAN): −24.23 photons per pixel, reduced to
  fluorescence intensity, Fat (MEAN): 295.69 photons per pixel, reduced to
  fluorescence intensity, Heart (MEAN): 186.72 photons per pixel, reduced to
  fluorescence intensity, Intestine (MEAN): 505.69 photons per pixel, reduced to
  fluorescence intensity, Kidney (MEAN): 382.29 photons per pixel, reduced to
  fluorescence intensity, Liver (MEAN): 2954.59 photons per pixel, reduced to
  fluorescence intensity, Lung (MEAN): 370.94 photons per pixel, reduced to
  fluorescence intensity, Muscle (MEAN): 93.88 photons per pixel, reduced to
  fluorescence intensity, Ovary (MEAN): 729.53 photons per pixel, reduced to
  fluorescence intensity, Pancreas (MEAN): 101.87 photons per pixel, reduced to
  fluorescence intensity, Salivary gland (MEAN): 271.01 photons per pixel, reduced to
  fluorescence intensity, Spleen (MEAN): 3403.29 photons per pixel, reduced to
  fluorescence intensity, Uterus (MEAN): 665.40 photons per pixel, reduced to
[2]; [6]
  fluorescence intensity, Adrenal gland (MEAN): 653.68 photons per pixel, reduced to
  fluorescence intensity, Brain (MEAN): 57.68 photons per pixel, reduced to
  fluorescence intensity, Fat (MEAN): 344.99 photons per pixel, reduced to
  fluorescence intensity, Heart (MEAN): 285.67 photons per pixel, reduced to
  fluorescence intensity, Intestine (MEAN): 354.94 photons per pixel, reduced to
  fluorescence intensity, Kidney (MEAN): 397.90 photons per pixel, reduced to
  fluorescence intensity, Liver (MEAN): 2663.45 photons per pixel, reduced to
  fluorescence intensity, Lung (MEAN): 300.36 photons per pixel, reduced to
  fluorescence intensity, Muscle (MEAN): 289.03 photons per pixel, reduced to
  fluorescence intensity, Ovary (MEAN): 989.32 photons per pixel, reduced to
  fluorescence intensity, Pancreas (MEAN): 158.45 photons per pixel, reduced to
  fluorescence intensity, Salivary gland (MEAN): 187.28 photons per pixel, reduced to
  fluorescence intensity, Spleen (MEAN): 3880.70 photons per pixel, reduced to
  fluorescence intensity, Uterus (MEAN): 636.69 photons per pixel, reduced to
[2]; Tables 2 to 5 (2 to 24 h), free tracer
  accumulation in the liver and the spleen, tracer DiD alone: Strong accumulation
